The values that follow are results of earlier work, collected in patent publication US20030130179A1, “Methods for identifying therapeutic targets for treating infectious disease” (priority 2000, published 2003).

In series [1] the target is thymidylate synthase (TS) (Homo sapiens, UniProt P04818).

SMILES strings stand for the structures.

thymidylate synthase (TS), sequence (P04818 2-313 limits assumed): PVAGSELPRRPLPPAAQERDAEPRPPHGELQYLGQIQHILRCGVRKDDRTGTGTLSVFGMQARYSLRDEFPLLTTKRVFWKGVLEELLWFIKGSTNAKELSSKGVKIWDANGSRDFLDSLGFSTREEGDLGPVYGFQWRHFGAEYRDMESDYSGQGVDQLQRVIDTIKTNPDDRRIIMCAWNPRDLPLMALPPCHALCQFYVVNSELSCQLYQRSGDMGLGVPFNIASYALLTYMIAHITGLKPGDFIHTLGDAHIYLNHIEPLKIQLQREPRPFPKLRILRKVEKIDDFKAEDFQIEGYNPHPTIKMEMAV

As to `O=c1[nH]c(=O)n([C@@H]2O[C@H](CO)[C@@H](O)[C@H]2O)cc1F` [5-fluorouridine], the cytotoxicity profile result in series [1] (TS inhibitor, relation to TS expression (Copur et al., 1995)) is given as “more toxic to the cells which express low amounts of the enzyme”.

For `COC(=O)[C@H](C)NP(=O)(OC[C@H]1O[C@@H](n2cc(/C=C/Br)c(=O)[nH]c2=O)C[C@@H]1O)Oc1ccccc1` (stereo partly shown) [NB1011], in series [1] (model cell-based systems, relation to TS protein levels), the Cytotoxicity result is listed as “proportional to TS protein levels”. In addition, in the series on colon and breast cancer (animal models), the “toxicity to the host” value was “little or no toxicity to the host”. For the same molecule, in the series on colon and breast cancer (colon and breast cancer animal models), the efficacy result was “demonstrated efficacy against colon and breast cancer”.
